Measurements from patent publication US20250333397A1 (REMIX THERAPEUTICS INC., priority 2021, published 2025).
Like-named read-outs stand apart in the source and are kept apart here.

Assays:
Assay type in all cases: cell-based, human
[1] = tested on: HTT mRNA; experiment: RT-qPCR splicing assay, HTT canonical (CJ) and alternative (AJ) junction mRNA; conditions: for AC50: read-out: HTT AJ (AC50, increase in AJ mRNA)
In short: (§1)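 Cells: A673 (DMEM/10% FBS, plated 24 h before) or K562 (IMDM/10% FBS). Dosing: 11-pt 3-fold series, 10 uM top final, ≤0.25% DMSO, 24 h, 37 °C/5% CO2. Readout: RT-qPCR of CJ and AJ junctions, housekeeper-normalized, RQ = 2^(-ΔΔCt) vs DMSO.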

[2] = tested on: MYB mRNA; experiment: RT-qPCR splicing assay, MYB canonical (CJ) and alternative (AJ) junction mRNA; conditions: for AC50: read-out: MYB AJ (AC50, increase in AJ mRNA)
In short: as §1

[3] = tested on: SMN2 mRNA; experiment: RT-qPCR splicing assay panel, SMN2 canonical junction (CJ) mRNA; conditions: canonical junction (CJ) mRNA, RT-qPCR panel, Table 4A, read-out: SMN2, decrease in CJ mRNA levels, IC50
In short: as §1

[4] = tested on: Target C mRNA; experiment: RT-qPCR splicing assay panel, Target C canonical junction (CJ) mRNA; conditions: canonical junction (CJ) mRNA, RT-qPCR panel, Table 4A, read-out: Target C, decrease in CJ mRNA levels, IC50
In short: as §1

[5] = Table 3A, A673 or K562 cells, 24 h treatment
[6] = Table 3A, A673 or K562 cells, 24 h treatment, read-out: HTT CJ (IC50, decrease in CJ mRNA)
[7] = canonical junction (CJ) mRNA, RT-qPCR panel, Table 4A, read-out: HTT, decrease in CJ mRNA levels, IC50
[8] = Table 3A, A673 or K562 cells, 24 h treatment, read-out: MYB CJ (IC50, decrease in CJ mRNA)
[9] = canonical junction (CJ) mRNA, RT-qPCR panel, Table 4A, read-out: MYB, decrease in CJ mRNA levels, IC50
[10] = Homo sapiens, 24 h, Table 3A, A673 or K562 cells, 24 h treatment
[11] = Homo sapiens, 24 h, Table 3A, A673 or K562 cells, 24 h treatment, read-out: HTT CJ (IC50, decrease in CJ mRNA)
[12] = Homo sapiens, canonical junction (CJ) mRNA, RT-qPCR panel, Table 4A, read-out: HTT, decrease in CJ mRNA levels, IC50
[13] = Homo sapiens, 24 h, Table 3A, A673 or K562 cells, 24 h treatment, read-out: MYB CJ (IC50, decrease in CJ mRNA)
[14] = Homo sapiens, canonical junction (CJ) mRNA, RT-qPCR panel, Table 4A, read-out: MYB, decrease in CJ mRNA levels, IC50

Row | IC50 [1, 6] [nM] | IC50 [1, 7] [nM] | IC50 [2, 8] [nM] | IC50 [2, 9] [nM] | IC50 [3] [nM] | IC50 ([4]; Homo sapiens) [nM] | IC50 [4] [nM] | IC50 [1, 11] [nM] | IC50 [1, 12] [nM] | IC50 [2, 13] [nM] | IC50 [2, 14] [nM] | IC50 ([3]; Homo sapiens) [nM] | Structure (SMILES) | AC50 [1, 5] [nM] | AC50 [2, 5] [nM] | AC50 [1, 10] [nM] | AC50 [2, 10] [nM]
1 |  |  |  |  |  | > 10000 |  | 1000 to 10000 | 1000 to 10000 | > 10000 | > 10000 | 1000 to 10000 | COc1cc(-c2cc(O)c(-c3ccc(N4CCC(NCC5CC5)C4)nn3)cc2F)ncn1 (stereo not drawn) [Compound 417] |  |  | 1000 to 10000 | 1000 to 10000
2 |  |  |  |  |  | 1000 to 10000 |  | 100 to 1000 | 100 to 1000 | 1000 to 10000 | 1000 to 10000 | 100 to 1000 | Oc1cc(-c2ccc(-c3ccc(N4CC[C@@H](NC5CCC5)C4)nn3)c(O)c2)cnn1 [Compound 419, 5-(4-{6-[(3R)-3-(cyclobutylamino)pyrrolidin-1-yl]pyridazin-3-yl}-3-hydroxyphenyl)pyridazin-3-ol] |  |  | 1000 to 10000 | > 10000
3 |  |  |  |  |  | 100 to 1000 |  | < 100 | < 100 | 100 to 1000 | 100 to 1000 | < 100 | COc1nc(-c2cnc(N3CCC(NC(C)(C)C)C3)nn2)ccc1-c1cnc(C)s1 (stereo not drawn) [Compound 422] |  |  | < 100 | 100 to 1000
4 |  |  |  |  |  | 1000 to 10000 |  | 100 to 1000 | 100 to 1000 | 1000 to 10000 | 1000 to 10000 | 100 to 1000 | COc1cc(-c2ccc(-c3cc(C#N)c(OC4CC(C)(C)NC(C)(C)C4)nn3)c(O)c2)ncn1 [Compound 425] |  |  | 1000 to 10000 | 1000 to 10000
5 |  |  |  |  |  | 1000 to 10000 |  | 100 to 1000 | 100 to 1000 | 1000 to 10000 | 1000 to 10000 | 100 to 1000 | COc1cc(-c2ccc(-c3ccc(N4CC[C@H](N[C@H]5C[C@H](F)C5)C4)nn3)c(O)c2)ncn1 [Compound 426] |  |  | 100 to 1000 | 1000 to 10000
6 |  |  |  |  |  | > 10000 |  | > 10000 | > 10000 | > 10000 | > 10000 | > 10000 | COCCc1cc(-c2ccc(-c3ccc(N4CCC(NC5CCC5)C4)nn3)c(O)c2)cnn1 (stereo not drawn) [Compound 430] |  |  | > 10000 | > 10000
7 |  |  |  |  |  | 100 to 1000 |  | < 100 | < 100 | 100 to 1000 | 100 to 1000 | < 100 | CNc1cc(-c2ccc(-c3ccc(N4CCC(NCC5CC5)C4)nn3)c(O)c2)ncn1 (stereo not drawn) [Compound 434] |  |  | < 100 | 100 to 1000
8 |  |  |  |  |  | < 100 |  | < 100 | < 100 | 100 to 1000 | 100 to 1000 | < 100 | CNc1cc(-c2ccc(-c3ccc(N4CC[C@H](NC(C)(C)C)C4)nn3)c(O)c2)ncn1 [Compound 436, 2-{6-[(3S)-3-(tert-butylamino)pyrrolidin-1-yl]pyridazin-3-yl}-5-[6-(methylamino)pyrimidin-4-yl]phenol] |  |  | < 100 | 100 to 1000

The next lines start with the molecule.

Row | Structure (SMILES) | IC50 [1, 6] [nM] | IC50 [1, 7] [nM] | IC50 [2, 8] [nM] | IC50 [2, 9] [nM] | IC50 [3] [nM] | IC50 ([4]; Homo sapiens) [nM] | IC50 [4] [nM] | IC50 [1, 11] [nM] | IC50 [1, 12] [nM] | IC50 [2, 13] [nM] | IC50 [2, 14] [nM] | IC50 ([3]; Homo sapiens) [nM] | AC50 [1, 5] [nM] | AC50 [2, 5] [nM] | AC50 [1, 10] [nM] | AC50 [2, 10] [nM]
9 | Cc1nc(-c2ccc(-c3ccc(N4CCC(NC5CCC5)C4)nn3)c(O)c2)cs1 (stereo not drawn) [Compound 412] | > 10000 | > 10000 | > 10000 | > 10000 | > 10000 | > 10000 |  |  |  |  |  |  | > 10000 | > 10000 |  | 
10 | Cc1nc(-c2ccc(-c3ccc(N4CCC(NC5CCC5)C4)nn3)c(O)c2)cs1 (stereo not drawn) [Compound 413] | 1000 to 10000 | 1000 to 10000 | 1000 to 10000 | 1000 to 10000 | 1000 to 10000 |  | > 10000 |  |  |  |  |  | 1000 to 10000 | 1000 to 10000 |  | 
11 | Cc1nnc(-c2ccc(-c3ccc(N4CC[C@H](NCC5CC5)C4)nn3)c(O)c2)s1 [Compound 414] |  |  |  |  |  | 100 to 1000 |  | < 100 | < 100 | 100 to 1000 | 100 to 1000 | < 100 |  |  | 100 to 1000 | 100 to 1000
12 | Cc1nnc(-c2ccc(-c3ccc(N4CC[C@@H](NCC5CC5)C4)nn3)c(O)c2)s1 [Compound 415] |  |  |  |  |  | 100 to 1000 |  | < 100 | < 100 | 100 to 1000 | 100 to 1000 | < 100 |  |  | < 100 | 100 to 1000
13 | Cc1ncc(-c2cc(O)c(-c3ccc(N4CC[C@@H](N[C@H](C)C5CC5)C4)nn3)cc2F)s1 [Compound 418] |  |  |  |  |  | < 100 |  | < 100 | < 100 | < 100 | < 100 | < 100 |  |  | < 100 | < 100
14 | Oc1cc(-c2ccc(-c3ccc(N4CC[C@H](NC5CCC5)C4)nn3)c(O)c2)cnn1 [Compound 420, 5-(4-{6-[(3S)-3-(cyclobutylamino)pyrrolidin-1-yl]pyridazin-3-yl}-3-hydroxyphenyl)pyridazin-3-ol] |  |  |  |  |  | 1000 to 10000 |  | 100 to 1000 | 100 to 1000 | 1000 to 10000 | 1000 to 10000 | 100 to 1000 |  |  | 1000 to 10000 | > 10000
15 | COc1nc(-c2cnc(N3CCC(NC4CCC4)C3)nn2)ccc1-c1cnc(C)s1 (stereo not drawn) [Compound 421] |  |  |  |  |  | 100 to 1000 |  | 100 to 1000 | 100 to 1000 | 100 to 1000 | 100 to 1000 | 100 to 1000 |  |  | 100 to 1000 | 100 to 1000
16 | CC1(C)CC(Oc2nnc(-c3ccc(-c4cn[nH]c4)cc3O)cc2C#N)CC(C)(C)N1 [Compound 423] |  |  |  |  |  | > 10000 |  | 1000 to 10000 | 1000 to 10000 | > 10000 | > 10000 | 100 to 1000 |  |  | 1000 to 10000 | > 10000
17 | COc1cc(-c2ccc(-c3cc(C#N)c(OC4CC(C)(C)NC(C)(C)C4)nn3)c(O)c2)cnn1 [Compound 424] |  |  |  |  |  | 1000 to 10000 |  | 100 to 1000 | 100 to 1000 | 1000 to 10000 | 1000 to 10000 | 100 to 1000 |  |  | 100 to 1000 | 1000 to 10000
18 | COc1cc(-c2ccc(-c3ccc(N4CC[C@@H](N[C@H]5C[C@H](F)C5)C4)nn3)c(O)c2)ncn1 [Compound 427] |  |  |  |  |  | 1000 to 10000 |  | 100 to 1000 | 100 to 1000 | 1000 to 10000 | 1000 to 10000 | 100 to 1000 |  |  | 100 to 1000 | 1000 to 10000
19 | Cc1nc(C#N)c(-c2cc(O)c(-c3ccc(N4CC[C@@H](NC5CCC5)C4)nn3)cc2F)s1 [Compound 428] |  |  |  |  |  | 100 to 1000 |  | 100 to 1000 | 100 to 1000 | 100 to 1000 | 100 to 1000 | < 100 |  |  | 100 to 1000 | 100 to 1000
20 | Cc1nc(C#N)c(-c2cc(O)c(-c3ccc(N4CC[C@H](NC5CCC5)C4)nn3)cc2F)s1 [Compound 429] |  |  |  |  |  | 100 to 1000 |  | 100 to 1000 | 100 to 1000 | 1000 to 10000 | 1000 to 10000 | 100 to 1000 |  |  | 100 to 1000 | 1000 to 10000
21 | Cc1nsc(-c2cc(O)c(-c3ccc(N4CC[C@@H](NCC5CC5)C4)nn3)cc2F)n1 [Compound 431] |  |  |  |  |  | 100 to 1000 |  | 100 to 1000 | 100 to 1000 | 100 to 1000 | 100 to 1000 | < 100 |  |  | 100 to 1000 | 100 to 1000
22 | Cc1nsc(-c2cc(O)c(-c3ccc(N4CC[C@H](NCC5CC5)C4)nn3)cc2F)n1 [Compound 432] |  |  |  |  |  | 100 to 1000 |  | < 100 | < 100 | 1000 to 10000 | 1000 to 10000 | < 100 |  |  | 100 to 1000 | 100 to 1000
23 | CCOc1cc(-c2ccc(-c3ccc(N4CCC(NCC5CC5)C4)nn3)c(O)c2)ncn1 (stereo not drawn) [Compound 433] |  |  |  |  |  | > 10000 |  | > 10000 | > 10000 | > 10000 | > 10000 | > 10000 |  |  | > 10000 | > 10000
24 | Cc1ncc(-c2cc(O)c(-c3cnc(OC4CC(C)(C)NC(C)(C)C4)nn3)cc2F)s1 [Compound 435] |  |  |  |  |  | 100 to 1000 |  | 100 to 1000 | 100 to 1000 | 1000 to 10000 | 1000 to 10000 | < 100 |  |  | 100 to 1000 | 1000 to 10000
